Columns and labels:
Conditions in all cases: incubation time: 72 h
[1] = system: MDA-MB-453; assay: normalised response (% of control), CellTox Green; higher = less cell death (100 = DMSO, 0 = benzethonium chloride kill control)
Procedure, shortened: (§1)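 In 384-well plates holding compound at 5 concentrations in 10-fold steps over a 10,000-fold range specific to each compound, breast cancer cell lines were seeded as 20 µl suspension and incubated 72 h. CellTox Green fluorescence was measured at 485/520 nm, after which CellTiter-Glo luminescence was measured following 10 min at room temperature. Plate signals were normalised to 0.1 % DMSO (100) and a positive kill control (0), and each value is the normalised signal at a single concentration.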

[2] = system: CAL-51; assay: as above
Procedure, shortened: as §1

[3] = system: MDA-MB-468; assay: as above
Procedure, shortened: as §1

[4] = system: BT-549; assay: as above
Procedure, shortened: as §1

[5] = system: DU-4475; assay: as above
Procedure, shortened: as §1

[6] = system: BT-474; assay: as above
Procedure, shortened: as §1

[7] = system: HCC1937; assay: as above
Procedure, shortened: as §1

[8] = system: CAL-120; assay: as above
Procedure, shortened: as §1

[9] = system: CAL-85-1; assay: as above
Procedure, shortened: as §1

[10] = system: MCF-10A; assay: as above
Procedure, shortened: as §1

[11] = system: MDA-MB-436; assay: as above
Procedure, shortened: as §1

[12] = system: Hs578T; assay: as above
Procedure, shortened: as §1

[13] = system: MFM-223; assay: as above
Procedure, shortened: as §1

[14] = system: HCC1599; assay: as above
Procedure, shortened: as §1

[15] = system: HCC1143; assay: as above
Procedure, shortened: as §1

[16] = system: MDA-MB-231; assay: as above
Procedure, shortened: as §1

[17] = system: HDQ-P1; assay: as above
Procedure, shortened: as §1

[18] = system: MDA-MB-453; assay: normalised response (% of control), CellTiter-Glo; higher = more viable cells (100 = DMSO, 0 = benzethonium chloride kill control)
Description: (§2)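 DSRT, 72 h incubation, CellTox Green / CellTiter-Glo readout. Signal is normalised to DMSO and benzethonium chloride controls. Value is the normalised response at dose 3.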

[19] = system: CAL-51; assay: as above
Description: as §2

[20] = system: CAL-148; assay: as above
Description: as §2

[21] = system: SK-BR-3; assay: as above
Description: as §2

[22] = system: MDA-MB-468; assay: as above
Description: as §2

[23] = system: BT-549; assay: as above
Description: as §2

[24] = system: DU-4475; assay: as above
Description: as §2

[25] = system: BT-474; assay: as above
Description: as §2

[26] = system: HCC1937; assay: as above
Description: as §2

[27] = system: CAL-120; assay: as above
Description: as §2

[28] = system: CAL-85-1; assay: as above
Description: as §2

[29] = system: MCF-10A; assay: as above
Description: as §2

[30] = system: MDA-MB-436; assay: as above
Description: as §2

[31] = system: Hs578T; assay: as above
Description: as §2

[32] = system: MFM-223; assay: as above
Description: as §2

[33] = system: HCC1599; assay: as above
Description: as §2

[34] = system: HCC1143; assay: as above
Description: as §2

[35] = system: MDA-MB-231; assay: as above
Description: as §2

[36] = system: HDQ-P1; assay: as above
Description: as §2

[37] = system: CAL-148; assay: normalised response (% of control), CellTox Green; higher = less cell death (100 = DMSO, 0 = benzethonium chloride kill control)
Procedure, shortened: as §1

Row | SMILES | normalised response [1] [%] | normalised response [2] [%] | normalised response [3] [%] | normalised response [4] [%] | normalised response [5] [%] | normalised response [6] [%] | normalised response [7] [%] | normalised response [8] [%] | normalised response [9] [%] | normalised response [10] [%] | normalised response [11] [%] | normalised response [12] [%] | normalised response [13] [%] | normalised response [14] [%] | normalised response [15] [%] | normalised response [16] [%] | normalised response [17] [%] | normalised response [18] [%] | normalised response [19] [%] | normalised response [20] [%] | normalised response [21] [%] | normalised response [22] [%] | normalised response [23] [%] | normalised response [24] [%] | normalised response [25] [%] | normalised response [26] [%] | normalised response [27] [%] | normalised response [28] [%] | normalised response [29] [%] | normalised response [30] [%] | normalised response [31] [%] | normalised response [32] [%] | normalised response [33] [%] | normalised response [34] [%] | normalised response [35] [%] | normalised response [36] [%] | normalised response [37] [%]
1 | Cc1ccc(NC(=O)c2ccc(CN3CCN(C)CC3)cc2)cc1Nc1nccc(-c2cccnc2)n1 [Imatinib] (100 nM) | 102 | 106 | 110 | 104 | 102 | 99.8 | 112 | 96.8 | 102 | 70.4 | 110 | 62.7 | 101 | 108 | 63.2 | 119 | 111 | 111 | 107 | 111 | 105 | 106 | 109 | 103 | 99 | 98 | 106 | 97.9 | 104 | 103 | 106 | 107 | 97 | 104 | 96.8 | 98.6 | 
2 | Cn1cncc1[C@@](N)(c1ccc(Cl)cc1)c1ccc2c(c1)c(-c1cccc(Cl)c1)cc(=O)n2C [Tipifarnib] (100 nM) | 98.7 | 63.4 | 118 | 107 | 98.1 | 98.2 | 99.6 | 90.6 | 108 | 99.7 | 20.8 | 57.8 | 99.9 | 107 | 104 |  | 103 | 75.7 | 72 | 85.3 | 69.3 | 74.9 | 86.9 | 77.8 | 87.6 | 80.8 | 89.3 | 104 | 83.9 | 71.6 | 83.1 | 82.6 | 91.5 | 88.8 | 92.7 | 81.2 | 92.2
3 | CC(C)(C#N)c1cc(Cn2cncn2)cc(C(C)(C)C#N)c1 [Anastrozole] (100 nM) | 102 | 73.3 |  | 103 | 103 | 102 | 99.9 | 99.9 | 101 | 74.4 | 93.3 | 87 | 100 | 102 | 102 | 106 | 97.9 | 105 | 67.3 | 98.8 | 106 | 91.3 | 104 | 107 | 104 | 95.3 | 101 | 98.6 | 112 | 104 | 113 | 104 | 100 | 97 | 97.4 | 102 | 106
4 | c1ccc([C@H]2CN3CCSC3=N2)cc1 [Levamisole] (100 nM) | 101 | 112 | 120 | 99.2 | 101 | 100 | 76.8 | 102 | 107 | 87.5 | 99.2 | 76.6 | 106 | 104 | 93.9 |  | 102 | 110 | 101 | 114 | 108 | 113 | 98.3 | 107 | 106 | 96.8 | 104 | 103 | 110 | 107 | 110 | 113 | 106 | 102 | 103 | 100 | 103
5 | CN(C)CCN1C(=O)c2cccc3cc(N)cc(c23)C1=O [Amonafide] (100 nM) | 104 | 95.2 | 144 | 106 | 97.2 | 98.5 | 104 | 97.8 | 101 | 103 | 80.1 |  | 106 | 115 | 114 | 81.1 | 81.9 | 89.3 | 79.1 | 93.8 | 95.3 | 96.8 | 106 | 99.2 | 106 | 98.8 | 100 | 93.1 | 99.5 | 99.5 | 100 | 101 | 74.9 | 100 | 111 | 102 | 99.3
6 | CNNCc1ccc(C(=O)NC(C)C)cc1 [Procarbazine] (100 nM) | 106 | 112 | 95.5 | 102 | 107 | 102 | 94.1 | 103 | 99.7 | 98.5 | 103 | 63.4 |  | 98.7 | 99.4 | 119 |  | 104 | 102 | 104 | 105 | 99.4 | 109 | 101 | 100 | 103 | 106 | 101 | 109 | 95.4 | 104 | 103 | 107 | 108 | 105 | 105 | 102
7 | Nc1nc(OCc2cc(Br)cs2)c2[nH]cnc2n1 [Lomeguatrib] (100 nM) | 106 | 92.9 | 134 | 95.1 | 101 | 102 | 104 | 100 | 103 | 97.3 | 98.3 | 100 | 103 | 100 | 96.5 | 110 |  | 95.2 | 84.8 | 102 | 106 | 95.4 | 99.2 | 101 | 98.8 | 101 | 99.2 | 101 | 106 | 102 | 99 | 100 | 111 | 106 | 98.2 | 106 | 63.5
8 | Nc1ncnc2c1c(COc1cccc(Cl)c1)nn2C1CCOCC1 (100 nM) | 111 | 101 |  | 98.5 | 109 | 102 | 112 | 103 | 108 | 109 | 102 | 51.6 | 103 | 114 | 95.8 | 119 | 102 | 93.5 | 84.5 | 109 | 109 | 102 | 98.8 | 100 | 102 | 95.5 | 101 | 103 | 110 | 104 | 78.4 | 105 | 102 | 104 | 108 | 101 | 107
9 | CN1CCN(CCOc2cc(OC3CCOCC3)c3c(Nc4c(Cl)ccc5c4OCO5)ncnc3c2)CC1 [Saracatinib] (100 nM) | 106 | 90.7 |  |  | 102 | 99.5 | 88.4 | 99 | 88.8 | 89.4 | 97 |  |  | 94.3 | 56.8 | 90.6 | 90.7 | 106 | 106 | 98.5 | 109 | 95.5 | 104 | 93.9 | 84.4 | 94.2 | 95.1 | 102 | 78.2 | 95.1 | 104 | 94.6 | 111 | 96.1 | 78.7 | 93.5 | 84.5
